Reference: US20250213524A1, “COMPOSITIONS FOR USE” (Amazentis SA, priority 2023, published 2025)

Test system: human sperm
Test: Ex vivo incubation of human semen samples with urolithin A, motility by computer-assisted semen analysis (CEROS II)
Assay type: cell-based
Details: for Motile sperm concentration (million/mL), UA vs. DMSO: 4 hours incubation at 36° C.; for Motile sperm concentration (million/mL), UA vs. DMSO / BCF Beat Cross-Frequency, UA vs. DMSO / Rapid progressive motile sperm concentration (million/mL), UA vs. DMSO: increase vs. DMSO; for Rapid progressive motile sperm concentration (million/mL), UA vs. DMSO: rapid progressive motility >25 μm/s; for motile sperm concentration: increase
Experimental: Sperm samples from five healthy men donors were processed within 1 hour of collection. 3 samples were either diluted 1:1 in culture media containing DMSO or urolithin A (UA) (0.05, 0.1, 0.5, and 2.0 μM in DMSO). For these samples, all treatments contained the same amount of DMSO. Two samples were pre-diluted in culture media, which was then diluted in the treatment solutions, immediately. This was to decrease the eventual effect of seminal plasma. Samples were incubated for 4 hours with the indicated UA doses. For the study, semen samples were obtained by masturbation after 2-7 days of ejaculatory abstinence, according to World Health Organization Guidelines (https://www.who.int/publications/i/item/9789240030787). Samples were collected into sterile wide-mouth polypropylene containers tested for sperm toxicity (BIRR semen collection container, IVF store code 113102). After collection, samples were kept in an air incubator for 1 hour, until semen liquefaction. For experiments, a 50 mM stock Urolithin A (UA) solution was prepared in Dimethyl Sulfoxide (DMSO, Fisher Scientific, BP231-100). At the day of the experiments, a working solution was prepared by diluting the 50 mM stock solution 1:1000 in Sperm Washing Medium (FujiFilm Modified HTF Medium with Human Serum Albumin, 5.0 mg/mL, catalog ID: 9983). A blank working solution containing only DMSO was also prepared by diluting DMSO 1:1000 in Sperm Washing Medium. Treatment solutions were then prepared containing 0, 0.1 μM, 0.2 μM, 1.0 μM, and 4.0 μM were prepared as follows: Treatment solutions were then diluted 1:1 with raw semen (samples A, B, and D) or with semen that had been pre-diluted 1:1 in Sperm Washing Medium (samples C and E), so that final achieved treatment concentrations were 0 (blank, DMSO only, 0.05 µM, 0.1 μM, 0.5 μM, and 2.0 µM UA. This was incubated at 36° C. for 4 hours, after which motility was assessed using a CEROS II system for computer-assisted semen analysis (Hamilton Thorne Inc., Beverly, MA, USA). To achieve this, 4-chamber 20 μm Leja slides (IMV International Ref. 025107-025108) were pre-heated at 37° C. 2.5 μL of each sample was pipetted into each chamber, and the Human Motility module of the CEROS II system was used to capture multiple fields (at least 6) in order to determine sperm motility parameters.

[1] = all doses (0.05, 0.1, 0.5, 2.0 μM), 4 hours incubation

O=c1oc2cc(O)ccc2c2ccc(O)cc12 [UA, Urolithin A]
Motile sperm concentration (million/mL), UA vs. DMSO (0.05 uM UA): 2%
BCF Beat Cross-Frequency, UA vs. DMSO (0.05 uM UA, 4 hours incubation, motile sperm): 5%
Rapid progressive motile sperm concentration (million/mL), UA vs. DMSO (0.05 uM UA, 4 hours incubation): 2%
Motile sperm concentration (million/mL), UA vs. DMSO (0.1 uM UA): 16.8%
BCF Beat Cross-Frequency, UA vs. DMSO (0.1 uM UA, 4 hours incubation, motile sperm): 6%
Rapid progressive motile sperm concentration (million/mL), UA vs. DMSO (0.1 uM UA, 4 hours incubation): 20%
Motile sperm concentration (million/mL), UA vs. DMSO (0.5 uM UA): 10.7%
BCF Beat Cross-Frequency, UA vs. DMSO (0.5 uM UA, 4 hours incubation, motile sperm): 9%
Rapid progressive motile sperm concentration (million/mL), UA vs. DMSO (0.5 uM UA, 4 hours incubation): 10%
Motile sperm concentration (million/mL), UA vs. DMSO (2 uM UA): 21.4%
BCF Beat Cross-Frequency, UA vs. DMSO (2 uM UA, 4 hours incubation, motile sperm): 7%
Rapid progressive motile sperm concentration (million/mL), UA vs. DMSO (2 uM UA, 4 hours incubation): 20%
Motile sperm concentration, effect in words [1]: increased at all doses
Rapid progressive motile sperm concentration, effect in words [1]: increased at all doses
Beat Cross-Frequency, effect in words (all doses (0.05, 0.1, 0.5, 2.0 μM), motile sperm, 4 hours incubation): an increase by UA at all doses
sperm motility / sperm health, effect in words (applied ex vivo to human sperm, especially 0.1 uM to 2 uM): increases sperm motility
motile sperm concentration (highest UA 2 μM dose, 4 hours incubation): 20%
motile sperm concentration (lower dose of UA 0.05 μM, 4 hours incubation): 2%
